Reference: US9138434B2, “Octahydrothienoquinoline derivative, pharmaceutical composition comprising derivative, and use of these” (KISSEI PHARMACEUTICAL CO., LTD., priority 2011, dated 2015)
Where two headings read alike, the source gives them in different places.

Experiments:
[1] = target: T1, human dopamine D2 receptor (Homo sapiens, UniProt P14416); test: Stimulating activities on human dopamine D2 receptor, [35S]GTPγS binding to hD2R#7 cell membrane homogenates; assay type: biochemical; conditions: [35S]GTPγS binding, membrane homogenates of HEK293 cells stably expressing human D2 receptor; mean, n=2; read-out: EC50
T1 construct: accorded to it of human dopamine D2 receptor (NM1-000795) registered on NCBI completely; expressed in transfected cells; membrane homogenates
T1 sequence (P14416 whole entry): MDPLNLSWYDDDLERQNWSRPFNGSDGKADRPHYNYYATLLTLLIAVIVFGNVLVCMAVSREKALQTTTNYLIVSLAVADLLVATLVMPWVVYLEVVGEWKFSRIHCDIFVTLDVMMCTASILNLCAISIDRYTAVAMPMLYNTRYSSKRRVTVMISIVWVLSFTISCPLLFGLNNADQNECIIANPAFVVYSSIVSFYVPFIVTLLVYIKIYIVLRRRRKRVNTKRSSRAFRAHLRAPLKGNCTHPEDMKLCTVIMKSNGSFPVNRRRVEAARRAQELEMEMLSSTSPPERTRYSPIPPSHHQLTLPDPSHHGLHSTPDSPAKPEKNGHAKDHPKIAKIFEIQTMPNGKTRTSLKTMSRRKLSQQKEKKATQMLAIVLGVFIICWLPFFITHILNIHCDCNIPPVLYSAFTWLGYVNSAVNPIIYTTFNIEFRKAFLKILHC
Method: Identification Test of Stimulating Activities on Human Dopamine D2 Receptor
4) Preparation of Membrane Homogenates from hD2R#7 Cells
(2) Preparation of Membrane Homogenates from hD2R#7 Cells
The cells, which were grown to confluence in 150 mm dishes (IWAKI), were harvested with isotonic buffer (50 mM Tris (Sigma), 2 mM ethylenediamine-tetraacetic acid (Invitrogen), and 125 mM sodium chloride (Wako Pure Chemicals), pH 7.4) and centrifuged at 1880×g and 4° C. for 10 minutes, and the cell pellets were then suspended in isotonic buffer. After being subjected to one cycle of freezing and thawing, the cells were centrifuged at 1880×g and 4° C. for 10 minutes, and the cell pellets were suspended in isotonic buffer. The cells were centrifuged at 1880×g and 4° C. for 10 minutes, and the cell pellets were suspended in isotonic buffer and homogenate buffer (10 mM sodium bicarbonate (Nacalai) and 5 mM ethylenediamine-tetraacetic acid, pH 7.5). The volume ratio of isotonic-to-homogenate buffer was 2. The cells were sonicated and centrifuged at 1880×g and 4° C. for 10 minutes, and the supernatants were ultracentrifuged at 80000×g and 4° C. for 30 minutes. The final cell pellets were suspended in homogenate buffer containing protease inhibitor cocktail (Nacalai) and stored at −80° C. until use. The protein concentration was determined using BCA Protein Assay Kit (Pierce) in accordance with the manufacturer's instructions.
5) Determination of Stimulating Activities of Human Dopamine D2 Receptor
The stimulating activities of human dopamine D2 receptor was determined by measuring the binding potential of [^35S]-guanosine 5′-[gamma-thio]triphosphate ([^35S]GTPγS, PerkinElmer) according to the method described by Newman-Tancredi A. et al. (Naunyn-Schmiedeberg's Arch Pharmacol, 1999, vol. 359, pp. 447-453) with a minor modification. Test compounds and dopamine hydrochloride (Fluka) as positive control were dissolved in dimethyl sulfoxide (CARLBIOCHEM), resulting in 30 mM. The both compounds were diluted with assay buffer (50 mM Tris, 100 mM sodium chloride, 5 mM magnesium chloride (Nacalai), 1 mM ethylenediamine-tetraacetic acid, 1 mM dithiothreitol (Wako Pure Chemicals), 10 μM guanosine diphosphate (Wako Pure Chemicals) and 0.5% bovine serum albumin (Sigma), pH 7.4) to a final concentration of 100 pM (only test compounds), 1 nM, 10 nM, 100 nM, 1 μM, 10 μM and 100 μM (only dopamine hydrochloride). The above membrane homogenates and [^35S]GTPγS were diluted with assay buffer to a final concentration of 0.06 mg/mL and 0.6 nM, respectively. The serial diluted compounds (50 μL), the diluted membrane homogenates (50 μL) and the diluted [^35S]GTPγS (50 μL) were mixed on multi-screen 96-well plate (Millipore) and shaken lightly at room temperature for 60 minutes. The reaction was terminated by vacuum filtration with three times washes of ice-cold wash buffer (50 mM Tris, 100 mM sodium chloride, 5 mM magnesium chloride, and 1 mM ethylenediamine-tetraacetic acid, pH 7.4). After drying the bottoms of the plate at 60° C., MicroScinti-40 (PerkinElmer) (30 μL) was added in the plate. The tops of the plate were sealed by TopSeal-A (PerkinElmer), and the radioactivity was determined in a TopCount NXT (registered mark) (PerkinElmer) after shaking lightly for 5-10 minutes. The data was analyzed by nonlinear regression and sigmoidal dose-response curve fitting using GraphPad PRISM 4.0 (GraphPad Software), and values of EC50 (concentration of the compound producing half the maximal effect of the compound) were calculated. The data was presented as mean value (n=2).

[2] = target: T2, human serotonin 5-HT2B receptor (Homo sapiens, UniProt P41595); test: Stimulating activities on human serotonin 5-HT2B receptor, intracellular calcium in forced expression HEK293 cells; assay type: cell-based
T2 construct: expressed in transfected cells; host or cells: HEK293, transient transfection (Lipofectamine 2000)
T2 sequence (P41595 whole entry): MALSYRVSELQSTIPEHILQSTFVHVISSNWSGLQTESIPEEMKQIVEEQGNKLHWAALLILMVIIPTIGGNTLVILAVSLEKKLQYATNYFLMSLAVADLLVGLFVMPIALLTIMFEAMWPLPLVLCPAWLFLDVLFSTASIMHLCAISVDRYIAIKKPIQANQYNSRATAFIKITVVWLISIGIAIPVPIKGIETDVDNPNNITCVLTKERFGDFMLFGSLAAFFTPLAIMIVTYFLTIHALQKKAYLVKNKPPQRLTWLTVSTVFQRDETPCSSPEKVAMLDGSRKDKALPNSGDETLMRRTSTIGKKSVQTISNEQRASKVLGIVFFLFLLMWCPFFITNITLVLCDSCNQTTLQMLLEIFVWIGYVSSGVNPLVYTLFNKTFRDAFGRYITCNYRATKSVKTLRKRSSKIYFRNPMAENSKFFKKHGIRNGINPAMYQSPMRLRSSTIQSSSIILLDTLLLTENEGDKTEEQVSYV
Method: Identification Test of Stimulating Activities on Human Serotonin 5-HT2B Receptor
The PCR was performed using forward primer depicted as sequence ID No. 4, reverse primer depicted as sequence ID No. 5 and KOD-Plus-Ver.2 (TOYOBO) as template of human brain hippocampus cDNA (Clontech). The PCR product was inserted into a plasmid (pcDNA3.1/V5-His-Topo (registered mark)). The PCR product-inserted plasmid was transformed in E. coli (One Shot TOP10 Chemically Competent). That E. coli was incubated in LB agar medium contained 50 μg/mL ampicillin for a day. A selected colony was incubated in LB medium contained 50 μg/mL ampicillin and PCR product-inserted plasmid was purified with QIAprep Spin Miniprep Kit (QIAGEN).
Mostly confluent HEK293 cells were washed with PBS, followed by exfoliation with 0.05% trypsin-EDTA and the cells were suspended in D-MEM liquid medium (phenol red-free, low glucose, pyruvic acid were contained) containing fetal bovine serum (final concentration: 10%) and GlutaMax (registered mark)I (final concentration: 2 mM). The suspension was scattered at 5×10^4 cells/100 L/well on poly-D-lysine-coated 96-well microplate (BD BioCoat (registered mark)). The scattered cells were cultured in 5% CO2 incubator at 37° C. Human serotonin 5-HT2B receptor expression plasmid was transfected in that cells according to the procedure seeing below.
Human serotonin 5-HT2B receptor expression plasmid and Lipofectamine (registered mark) 2000 (Invitrogen) were diluted to 0.008 g/L and 0.016 g/L each other with OPTI-MEM (registered mark)I Reduced-Serum Medium and incubated at room temperature. After incubation, the human serotonin 5-HT2B receptor exoression plasmid-diluted liquid and Lipofectamine (registered mark) 2000-diluted liquid were mixed at an equal volume and incubated at room temperature to form a complex. The complex was dispensed at 50 μL/well on the cells prepared above. The cells were incubated in 5% CO2 incubator at 37° C. for 2 days. After incubation, the cells were used as human serotonin 5-HT2B receptor forced expression cells for measurement of intracellular calcium concentration.
3) Determination of Stimulating Activities of Human Serotonin 5-HT2B Receptor
The stimulating activities of human serotonin 5-HT2B receptor was determined by measuring of intracellular calcium concentration. The 30 mM dimethyl sulfoxide (DMSO) solution contained test compounds or serotonin hydrochloride (Sigma) as positive control, was diluted with assay buffer ((HBSS), 20 mM HEPES, 1.3 mM calcium chloride, 0.5 mM magnesium chloride and 0.4 mM magnesium sulfate were contained, pH7.4) to appropriate concentration.
The forced expression cells were washed with assay buffer, and 100 μL/well of fluorescent calcium indicator (Fluo-4 NW Calcium Assay Kit) was added and incubated in 5% CO2 incubator at 37° C. After incubation, 50 μL/well of each test compound was added, and the concentration of intracellular calcium was measured as fluorescent signal with FlexStation (registered mark) II (Molecular Devices). The data was analyzed by nonlinear regression and sigmoidal dose-response curve fitting using GraphPad PRISM 4.0, and values of EC50 (concentration of the compound producing half the maximal effect of the compound) were calculated. The data was presented as mean value (n=2).

[3] = intracellular calcium (Fluo-4), HEK293 cells transiently expressing human 5-HT2B receptor, mean, n=2, read-out: EC50

Compound	EC50 [1] [nM]	EC50 [2, 3] [µM]	EC50 [2] [µM]
CC(C)CCN(C(=O)NCCN(C)C)C(=O)[C@@H]1C[C@@H]2Cc3c(sc(N)c3C#N)C[C@H]2N(C)C1 (relative stereo) [1-43, 1-{[(4aR*,6R*,8aR*)-2-amino-3-cyano-8-methyl-4H,4aH,5H,6H,7H,8H,8aH,9H-thieno[3,2-g]quinolin-6-yl]carbonyl}-3-[2-(dimethylamino)ethyl]-1-(3-methylbutyl)urea]	32	> 10	–
CCN(C(=O)NCC(C)(C)CN(C)C)C(=O)[C@@H]1C[C@@H]2Cc3c(sc(N)c3C#N)C[C@H]2N(C)C1 [1-4, 1-{[(4aR,6R,8aR)-2-amino-3-cyano-8-methyl-4H,4aH,5H,6H,7H,8H,8aH,9H-thieno[3,2-g]quinolin-6-yl]carbonyl}-3-[3-(dimethylamino)-2,2-dimethylpropyl]-1-ethlylurea]	3	> 10	–
CCN(C(=O)N[C@@H](C)CN(C)C)C(=O)[C@@H]1C[C@@H]2Cc3c(sc(N)c3C#N)C[C@H]2N(C)C1 [1-57, 1-{[(4aR,6R,8aR)-2-amino-3-cyano-8-methyl-4H,4aH,5H,6H, 7H,8H,8aH,9H-thieno[3,2-g]quinolin-6-yl]carbonyl}-3-[(2S)-1-(dimethylamino)propan-2-yl]-1-ethylurea]	5	> 10	–
CCN(C(=O)NCCN(C)C)C(=O)[C@@H]1C[C@@H]2Cc3c(sc(N)c3C#N)C[C@H]2N(C)C1 [1-108, 1-{[(4aR,6R,8aR)-2-amino-3-cyano-8-methyl-4H,4aH,5H,6H,7H,8H,8aH,9H-thieno[3,2-g]quinolin-6-yl]carbonyl}-3-[2-(dimethylamino)ethyl]-1-ethylurea]	6	> 10	–
CCCN(CCC)CCc1cccc2c1CC(=O)N2 [Ropinirole, ropinirole, reference compound]	892	–	2.59

Continued, in another order:

EC50 [1] [nM]	EC50 [2, 3] [µM]	Compound	EC50 [2] [µM]
17	> 10	CCCCN(C(=O)NCCN(C)C)C(=O)[C@@H]1C[C@@H]2Cc3c(sc(N)c3C#N)C[C@H]2N(C)C1 (relative stereo) [1-24, 1-{[(4aR*,6R*,8aR*)-2-amino-3-cyano-8-methyl-4H,4aH,5H,6H,7H,8H,8aH,9H-thieno[3,2-g]quinolin-6-yl]carbonyl}-1-butyl-3-[2-(dimethylamino)ethyl]urea]	–
10	> 10	CCCCN(C(=O)NCCN1CCCCC1)C(=O)[C@@H]1C[C@@H]2Cc3c(sc(N)c3C#N)C[C@H]2N(C)C1 (relative stereo) [1-46, 1-{[(4aR*,6R*,8aR*)-2-amino-3-cyano-8-methyl-4H,4aH,5H,6H,7H,8H,8aH,9H-thieno[3,2-g]quinolin-6-yl]carbonyl}-1-butyl-3-[2-(piperidin-1-yl)ethyl]urea]	–
6	> 10	CCCN(C(=O)NCCN(C)C)C(=O)[C@@H]1C[C@@H]2Cc3c(sc(N)c3C#N)C[C@H]2N(C)C1 [1-1, 1-{[(4aR,6R,8aR)-2-amino-3-cyano-8-methyl-4H,4aH,5H, 6H,7H,8H,8aH,9H-thieno[3,2-g]quinolin-6-yl]carbonyl}-3-[2-(dimethylamino)ethyl]-1-propylurea]	–
7	> 10	CCCCN(C(=O)NCCN(CC)CC)C(=O)[C@@H]1C[C@@H]2Cc3c(sc(N)c3C#N)C[C@H]2N(C)C1 [1-3, 1-{[(4aR,6R,8aR)-2-amino-3-cyano-8-methyl-4H,4aH,5H,6H,7H,8H,8aH,9H-thieno[3,2-g]quinolin-6-yl]carbonyl}-1-butyl-3-[2-(diethylamino)ethyl]urea]	–
